These results are taken from ChEMBL document CHEMBL1201862, “PubChem BioAssay data set” (2004).

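96-well plates; 48 h exposure; 5 concentrations. Endpoints by linear interpolation between flanking doses. Not reached: highest tested concentration assigned. GI50 is the concentration that inhibits growth by half.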 Activity calls are given as the source filed them. No stated cut-off is given here; in the data, active = GI50 up to about 1.1 µM and inactive = higher.

Among the test systems are OVCAR-5; NCI-H226; HCT-15; HCC 2998; CCRF-CEM; SNB-75; SK-OV-3; CAKI-1; K562; HCT-116; TK-10; A498; IGROV-1; M14; DLD-1; MDA-MB-231; MDA-MB-435; DU-145; MDA-N.
Common to all, as to assay: growth of human tumour cells (NCI), 48 h

For the compound `Cc1c(Cl)cccc1NC(=O)C(=O)C1C(=O)NC(=O)NC1=O`, the GI50 in the assay on OVCAR-5 is > 100 µM (inactive); in the assay on NCI-H226, > 100 µM (inactive); with HCT-15, over 100 µM; in the assay on HCC 2998 it was > 100 µM (inactive); with CCRF-CEM, > 100 µM (inactive); in the assay with SNB-75, > 100 µM (inactive). Moreover, the GI50 in the assay on SK-OV-3, in the assay with CAKI-1, in the assay with K562, in the assay with HCT-116, in the assay on TK-10 and with A498 was > 100 µM (inactive) throughout. Besides, the GI50 in the assay with IGROV-1, in the assay with M14 and in the assay with DLD-1 was > 100 µM (inactive) in each case.
With `CS/C(C)=N/OC(=O)NCCCCNc1ccc(N=[N+]=[N-])cc1`, the GI50 in the assay on OVCAR-5 was > 100 µM (inactive); in the assay with NCI-H226, 21 µM (inactive); with HCT-15, 36.9 µM; in the assay with HCC 2998, 23.9 µM (inactive); in the assay on CCRF-CEM, 24.2 µM (inactive); with SNB-75, 52.4 µM (inactive). In addition, the GI50 was 37.9 µM (inactive) in the assay on SK-OV-3; 36.5 µM (inactive) in the assay with CAKI-1; 30.8 µM (inactive) in the assay with K562; 34.2 µM (inactive) with HCT-116; 33.3 µM (inactive) in the assay with TK-10; 47 µM (inactive) in the assay with A498. Besides, the GI50 with IGROV-1 was 87.3 µM (inactive); in the assay on M14 it was 37.7 µM (inactive); with DLD-1, > 100 µM (inactive).
On to `CCOc1ccc(NC(=O)C(=O)NO)cc1`, for which the GI50 with OVCAR-5 was > 100 µM (inactive); in the assay with NCI-H226 it was > 100 µM (inactive); in the assay on HCT-15, over 100 µM; with HCC 2998 it was > 100 µM (inactive); in the assay with CCRF-CEM, > 100 µM (inactive); with SNB-75 it was > 100 µM (inactive). The GI50 in the assay with SK-OV-3, in the assay on CAKI-1, in the assay on K562, in the assay on HCT-116, with TK-10 and with A498 was > 100 µM (inactive) throughout. Moreover, the GI50 with IGROV-1, with M14 and with DLD-1 was > 100 µM (inactive) each time.
Consider `COc1ccc(/C=C2\CCC(C)(CN(C)C)C2=O)cc1Br` (centres undefined), for which the GI50 with OVCAR-5 is 37.7 µM (inactive); with NCI-H226, 18.9 µM (inactive); with MDA-MB-231, 36.1 µM (inactive); with HCT-15 it was 16.9 µM; in the assay with MDA-MB-435, 24.5 µM (inactive); with HCC 2998 it was 20.8 µM (inactive). Besides, the GI50 is 37.5 µM (inactive) in the assay on CCRF-CEM; 25.6 µM (inactive) in the assay with SNB-75; 30.1 µM (inactive) in the assay on SK-OV-3; 32.7 µM (inactive) in the assay on CAKI-1; 27.9 µM (inactive) in the assay on K562; 17.2 µM (inactive) in the assay with HCT-116. The GI50 with TK-10 was 22 µM (inactive); in the assay on DU-145 it was 50.4 µM (inactive); with A498, 22.4 µM (inactive); with IGROV-1 it was 16.2 µM (inactive); in the assay with M14, 19.8 µM (inactive); with DLD-1, 17.3 µM (inactive). The GI50 in the assay on MDA-N was 19.1 µM (inactive).
Regarding `BrC12c3ccccc3Sc3ccccc3C1(Br)c1ccccc12` (centres undefined), the GI50 was 25.5 µM (inactive) in the assay on OVCAR-5; 16.7 µM (inactive) in the assay on NCI-H226; 17.8 µM in the assay with HCT-15; 28.8 µM (inactive) with HCC 2998; 4.93 µM (inactive) in the assay on CCRF-CEM; 27.3 µM (inactive) in the assay with SNB-75. The GI50 in the assay on SK-OV-3 was 42.1 µM (inactive); with CAKI-1 it was 26.1 µM (inactive); with K562, 22.2 µM (inactive); in the assay with HCT-116, 22 µM (inactive); with TK-10, 35.6 µM (inactive); in the assay with A498, 22.9 µM (inactive). Moreover, the GI50 with IGROV-1 was 27 µM (inactive); in the assay on M14 it was 15.2 µM (inactive); in the assay on DLD-1, 33 µM (inactive).
In the case of `CC(=O)OC1CCCn2c1nc1c2C(=O)C(C)=C(N2CC2)C1=O` (centres undefined), the GI50 with OVCAR-5 is 0.356 µM (active); with NCI-H226, 0.318 µM (active); in the assay with HCT-15, 0.207 µM; in the assay with HCC 2998, 0.232 µM (active); with CCRF-CEM it was 3.51 µM (inactive); in the assay on SNB-75 it was 0.301 µM (active). In addition, the GI50 in the assay on SK-OV-3 is 0.364 µM (active); with CAKI-1, 0.296 µM (active); in the assay with K562, 0.891 µM (active); with HCT-116 it was 0.409 µM (active); with TK-10, 2.75 µM (inactive); in the assay with A498 it was 0.161 µM (active). Moreover, the GI50 in the assay on IGROV-1 was 0.962 µM (active); with M14, 0.163 µM (active); in the assay with DLD-1, 0.583 µM (active).
For `NC1=NC(Cn2nc(-c3ccccc3)c3ccccc3c2=O)=NNC(=O)N1`, the GI50 is > 100 µM (inactive) in the assay with OVCAR-5; > 100 µM (inactive) in the assay with NCI-H226; over 100 µM in the assay with HCT-15; > 100 µM (inactive) in the assay on HCC 2998; > 100 µM (inactive) with CCRF-CEM; > 100 µM (inactive) with SNB-75. Besides, the GI50 in the assay on SK-OV-3, with CAKI-1, in the assay on K562, in the assay on HCT-116, in the assay on TK-10 and in the assay on A498 was > 100 µM (inactive) throughout. The GI50 in the assay with IGROV-1, in the assay on M14 and in the assay on DLD-1 was > 100 µM (inactive) each time.
